Experimental data as given in ChEMBL document CHEMBL1649066, “An imidazopiperidine series of CCR5 antagonists for the treatment of HIV: the discovery of N-{(1S)-1-(3-fluorophenyl)-3-[(3-endo)-3-(5-isobutyryl-2-methyl-4,5,6,7-tetrahydro-1H-imidazo[4,5-c]pyridin-1-yl)-8-azabicyclo[3.2.1]oct-8-yl]propyl}acetamide (PF-232798)” (J Med Chem, 2011).
The source made the active and inactive calls. The rule behind the calls is not given here.

Tests used:
[1] = Apparent permeability from apical to basolateral side of human Caco2 cells; conditions: Caco-2
[2] = Apparent permeability from basolateral to apical side of human Caco2 cells; conditions: Caco-2
[3] = Intrinsic clearance in human liver microsomes assessed per mg of protein; format: ADME, Microsome
[4] = Octanol-buffer partition coefficient, log D of the compound
hERG (KCNH2) = hERG (KCNH2) (Homo sapiens, UniProt Q12809); test: in vitro; conditions: HEK293 cells that express human ERG, probe [3H]-dofetilide
hERG (KCNH2), sequence (Q12809 whole entry): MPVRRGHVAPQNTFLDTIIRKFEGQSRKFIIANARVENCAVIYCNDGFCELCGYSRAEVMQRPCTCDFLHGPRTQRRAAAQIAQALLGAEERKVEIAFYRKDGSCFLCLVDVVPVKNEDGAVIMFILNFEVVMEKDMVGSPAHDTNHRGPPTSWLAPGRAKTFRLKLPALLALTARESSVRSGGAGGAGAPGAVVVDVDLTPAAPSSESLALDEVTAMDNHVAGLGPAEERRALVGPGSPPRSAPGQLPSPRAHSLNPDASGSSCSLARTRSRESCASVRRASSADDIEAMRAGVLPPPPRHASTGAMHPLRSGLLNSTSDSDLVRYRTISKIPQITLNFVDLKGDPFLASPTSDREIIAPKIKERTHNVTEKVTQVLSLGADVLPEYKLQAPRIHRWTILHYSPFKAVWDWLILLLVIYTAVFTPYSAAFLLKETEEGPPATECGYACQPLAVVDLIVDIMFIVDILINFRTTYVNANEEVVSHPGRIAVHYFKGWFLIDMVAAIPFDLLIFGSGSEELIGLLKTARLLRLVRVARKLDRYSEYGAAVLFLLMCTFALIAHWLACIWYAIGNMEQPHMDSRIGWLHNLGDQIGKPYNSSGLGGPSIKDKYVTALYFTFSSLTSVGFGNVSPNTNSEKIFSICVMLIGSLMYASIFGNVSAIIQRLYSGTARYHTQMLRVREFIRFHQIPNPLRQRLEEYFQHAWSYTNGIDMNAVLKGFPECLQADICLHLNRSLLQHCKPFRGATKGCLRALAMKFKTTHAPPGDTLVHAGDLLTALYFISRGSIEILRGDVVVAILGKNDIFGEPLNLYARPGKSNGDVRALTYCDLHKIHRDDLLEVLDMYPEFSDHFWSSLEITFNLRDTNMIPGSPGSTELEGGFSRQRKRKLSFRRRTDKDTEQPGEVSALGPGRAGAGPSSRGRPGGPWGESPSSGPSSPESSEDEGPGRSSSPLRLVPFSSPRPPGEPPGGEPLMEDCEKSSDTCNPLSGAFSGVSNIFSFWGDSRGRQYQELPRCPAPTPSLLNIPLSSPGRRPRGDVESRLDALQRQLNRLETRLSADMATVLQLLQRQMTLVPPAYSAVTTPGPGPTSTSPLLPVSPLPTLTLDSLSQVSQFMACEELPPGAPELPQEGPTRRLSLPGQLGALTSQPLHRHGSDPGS
Description: Displacement of [3H]-dofetilide from human ERG expressed in HEK293 cells at 300 nM

[5] = tested on: Human immunodeficiency virus 1; test: Antiviral activity against maraviroc-resistant HIV1 isolate CC185 at 100 times IC90 concentration; format: functional, organism-based
[6] = tested on: Human immunodeficiency virus 1; test: Antiviral activity against maraviroc-resistant HIV1 isolate CC185 at 10 times IC90 concentration; format: functional, organism-based
[7] = tested on: Human immunodeficiency virus 1; test: Antiviral activity against maraviroc-resistant HIV1 isolate CC185 at IC90 concentration; format: functional, organism-based
[8] = target: Voltage-gated inwardly rectifying potassium channel KCNH2 (Homo sapiens, UniProt Q12809)
Voltage-gated inwardly rectifying potassium channel KCNH2, sequence (Q12809 whole entry): as above
Description: Displacement of [3H]-dofetilide from human ERG expressed in HEK293 cells

[9] = Half life in dog at 0.5 mg/kg, iv and 0.5 mg/kg, po; format: ADME, organism-based, Canis lupus familiaris; conditions: in vivo
[10] = Oral bioavailability in dog at 0.5 mg/kg; format: ADME, organism-based, Canis lupus familiaris; conditions: in vivo
[11] = Volume of distribution in dog at 0.5 mg/kg, iv and 0.5 mg/kg, po; format: ADME, organism-based, Canis lupus familiaris; conditions: in vivo
Canis familiaris = test: Unbound clearance in dog at 0.5 mg/kg, iv and 0.5 mg/kg, po; format: ADME, organism-based, Canis lupus familiaris; conditions: in vivo
[12] = Clearance in dog at 0.5 mg/kg, iv and 0.5 mg/kg, po; format: ADME, organism-based, Canis lupus familiaris; conditions: in vivo
[13] = Plasma protein binding in dog at 0.5 mg/kg, iv and 0.5 mg/kg, po; format: ADME, organism-based, Canis lupus familiaris; conditions: read-out: PPB (converted)
[14] = Tmax in dog at 0.5 mg/kg, po; format: ADME, organism-based, Canis lupus familiaris; design: dose 0.5 mg/kg, route oral; conditions: in vivo
[15] = tested on: Human immunodeficiency virus; test: Antiviral activity against HIV Ba-L infected in PBMC; format: functional; conditions: Human immunodeficiency virus 1, Ba-L
[16] = Plasma protein binding in rat at 1 mg/kg, iv and 2 mg/kg, po; format: ADME, organism-based; conditions: read-out: PPB (converted)
[17] = Clearance in rat at 1 mg/kg, iv and 2 mg/kg, po; format: ADME, organism-based; conditions: in vivo
Rattus norvegicus = test: Unbound clearance in rat at 1 mg/kg, iv and 2 mg/kg, po; format: ADME, organism-based; conditions: in vivo
[18] = Half life in rat at 1 mg/kg, iv and 2 mg/kg, po; format: ADME, organism-based; conditions: in vivo
[19] = Oral bioavailability in rat at 2 mg/kg; format: ADME, organism-based; conditions: in vivo
[20] = Intrinsic clearance in rat liver microsomes assessed per mg of protein; format: ADME, Microsome
[21] = Intrinsic clearance in dog liver microsomes assessed per mg of protein; format: ADME, Canis lupus familiaris, Microsome

COC(=O)N[C@@H](CCN1[C@@H]2CC[C@H]1C[C@@H](n1c(C)nc3c1CN(C(C)=O)CC3)C2)c1ccccc1
Papp A→B [1]: 40 nm/s | Papp B→A [2]: 270 nm/s | microsomal CLint [3]: 42 µL/min/mg | logD [4]: 1.4 | inhibition at 0.3 µM (hERG (KCNH2)): 57%

CC(=O)N1CC(C(=O)N[C@@H](CCN2[C@@H]3CC[C@H]2C[C@@H](n2c(C)nc4ccccc42)C3)c2ccccc2)C1
Activity [5]: Active | Activity [6]: Active | Activity [7]: Active

CC(=O)N[C@@H](CCN1[C@@H]2CC[C@H]1C[C@@H](n1c(C)nc3c1CN(C(C)C)CC3)C2)c1ccccc1
microsomal CLint [3]: 46 µL/min/mg | logD [4]: 0.8

CC(=O)N[C@@H](CCN1[C@@H]2CC[C@H]1C[C@@H](n1c(C)nc3c1CCN(C(C)=O)C3)C2)c1cccc(F)c1
Papp A→B [1]: < 10 nm/s | Papp B→A [2]: 60 nm/s | microsomal CLint [3]: < 8 µL/min/mg | logD [4]: 1.4

CCCC(=O)N1CCc2c(nc(C)n2[C@H]2C[C@H]3CC[C@@H](C2)N3CC[C@H](NC(C)=O)c2cccc(F)c2)C1
Papp A→B [1]: 10 nm/s | Papp B→A [2]: 260 nm/s | microsomal CLint [3]: 25 µL/min/mg | logD [4]: 2.2

CC(=O)N[C@@H](CCN1[C@@H]2CC[C@H]1C[C@@H](n1c(C)nc3c1CN(S(C)(=O)=O)CC3)C2)c1ccccc1
microsomal CLint [3]: 24 µL/min/mg | logD [4]: 0.9 | inhibition at 0.3 µM (hERG (KCNH2)): 10%

CC(=O)N[C@@H](CCN1[C@@H]2CC[C@H]1C[C@@H](n1c(C)nc3c1CN(C)CC3)C2)c1ccccc1
Papp A→B [1]: < 10 nm/s | Papp B→A [2]: 90 nm/s | microsomal CLint [3]: < 7 µL/min/mg | logD [4]: 0.4 | inhibition at 0.3 µM (hERG (KCNH2)): 0%

CC(=O)N[C@@H](CCN1[C@@H]2CC[C@H]1C[C@@H](n1c(C)nc3c1CCN(c1ccncn1)C3)C2)c1cccc(F)c1
Papp A→B [1]: 40 nm/s | Papp B→A [2]: 150 nm/s | microsomal CLint [3]: 35 µL/min/mg | logD [4]: 2.6 | IC50 [8]: 0.01 µM

COC[C@@H](c1ccc(C(F)(F)F)cc1)N1CCN(C2(C)CCN(C(=O)c3c(C)ncnc3C)CC2)C[C@@H]1C
Activity [5]: Active | Activity [6]: Active | Activity [7]: Active

CCC(=O)N1CCc2nc(C)n([C@H]3C[C@H]4CC[C@@H](C3)N4CC[C@H](NC(C)=O)c3ccccc3)c2C1
Papp A→B [1]: < 10 nm/s | Papp B→A [2]: 170 nm/s | microsomal CLint [3]: < 7 µL/min/mg | logD [4]: 1.2 | inhibition at 0.3 µM (hERG (KCNH2)): 13%

CC(=O)N[C@@H](CCN1[C@@H]2CC[C@H]1C[C@@H](n1c(C)nc3c1CN(C(C)=O)CC3)C2)c1ccccc1
Papp A→B [1]: < 10 nm/s | Papp B→A [2]: 50 nm/s | microsomal CLint [3]: < 7 µL/min/mg | logD [4]: 0.6 | inhibition at 0.3 µM (hERG (KCNH2)): 0%

Cc1nnc(C(C)C)n1[C@H]1C[C@H]2CC[C@@H](C1)N2CC[C@H](NC(=O)C1CCC(F)(F)CC1)c1cccc(F)c1
Activity [5]: inactive | Activity [6]: inactive | Activity [7]: inactive

Cc1nc(C(C)C)n([C@H]2C[C@H]3CC[C@@H](C2)N3CC[C@H](NC(=O)C2CCC(F)(F)CC2)c2ccccc2)n1
Papp A→B [1]: 110 nm/s | Papp B→A [2]: 260 nm/s | IC50 [8]: 4.23 µM

CC(=O)N[C@@H](CCN1[C@@H]2CC[C@H]1C[C@@H](n1c(C)nc3c1CN(C(=O)OC(C)C)CC3)C2)c1ccccc1
Papp A→B [1]: 50 nm/s | Papp B→A [2]: 280 nm/s | microsomal CLint [3]: 44 µL/min/mg | logD [4]: 2.7 | inhibition at 0.3 µM (hERG (KCNH2)): 75%

CC(=O)N[C@@H](CCN1[C@@H]2CC[C@H]1C[C@@H](n1c(C)nc3c1CCN(C(=O)C(C)(C)C)C3)C2)c1cccc(F)c1
Papp A→B [1]: 10 nm/s | Papp B→A [2]: 240 nm/s | microsomal CLint [3]: 35 µL/min/mg | logD [4]: 2.8

CC(=O)N[C@@H](CCN1[C@@H]2CC[C@H]1C[C@@H](n1c(C)nc3c1CCN(c1cnccn1)C3)C2)c1cccc(F)c1
microsomal CLint [3]: 183 µL/min/mg | logD [4]: 3 | IC50 [8]: 1 µM

Cc1nnc(C2CC2)n1[C@H]1C[C@H]2CC[C@@H](C1)N2CC[C@H](NC(=O)C1CCC(F)(F)CC1)c1ccccc1
Activity [5]: inactive | Activity [6]: inactive | Activity [7]: inactive

CCC(=O)N1CCc2c(nc(C)n2[C@H]2C[C@H]3CC[C@@H](C2)N3CC[C@H](NC(C)=O)c2cccc(F)c2)C1
Activity [5]: Active | Activity [6]: Active | Activity [7]: Active | Papp A→B [1]: 20 nm/s | Papp B→A [2]: 130 nm/s | microsomal CLint [3]: 11 µL/min/mg | logD [4]: 1.7 | IC50 [8]: 5 µM

COC(=O)N[C@@H](CCN1[C@@H]2CC[C@H]1C[C@@H](n1c(C)nc3c1CN(C(C)=O)CC3)C2)c1cccc(F)c1
Papp A→B [1]: 60 nm/s | Papp B→A [2]: 230 nm/s | microsomal CLint [3]: 24 µL/min/mg | logD [4]: 1.7 | inhibition at 0.3 µM (hERG (KCNH2)): 28%

COC(=O)N1CCc2nc(C)n([C@H]3C[C@H]4CC[C@@H](C3)N4CC[C@H](NC(C)=O)c3ccccc3)c2C1
Papp A→B [1]: 30 nm/s | Papp B→A [2]: 160 nm/s | microsomal CLint [3]: 18 µL/min/mg | logD [4]: 1.5 | inhibition at 0.3 µM (hERG (KCNH2)): 20%

CCCCN1C(=O)[C@@H]([C@H](O)C2CCCCC2)NC(=O)C12CCN(Cc1ccc(Oc3ccc(C(=O)O)cc3)cc1)CC2
Activity [5]: Active | Activity [6]: Active | Activity [7]: Active

CC(=O)N[C@@H](CCN1[C@@H]2CC[C@H]1C[C@@H](n1c(C)nc3c1CCN(C(=O)C(C)C)C3)C2)c1cccc(F)c1 [PF-232798]
half-life [9]: 3.4 h | bioavailability [10]: 31% | Vd [11]: 10.5 L/kg | CL (Canis familiaris): 3.78 L/h/kg | clearance [12]: 2.16 L/h/kg | fraction unbound [13]: 0.53 | Tmax [14]: 1 h | Activity [5]: Active | Activity [6]: Active | Activity [7]: Active | Papp A→B [1]: 20 nm/s | Papp B→A [2]: 80 nm/s | microsomal CLint [3]: 13 µL/min/mg | logD [4]: 2 | IC90 [15]: 0.002 µM | fraction unbound [16]: 0.38 | clearance [17]: 12.1 L/h/kg | CL (Rattus norvegicus): 31.6 L/h/kg | half-life [18]: 1.4 h | bioavailability [19]: < 5% | microsomal CLint [20]: < 6 µL/min/mg | microsomal CLint [21]: < 9 µL/min/mg | IC50 [8]: 12 µM

Cc1nnc(C(C)C)n1[C@H]1C[C@H]2CC[C@@H](C1)N2CC[C@H](NC(=O)C1CCC(F)(F)CC1)c1ccccc1 [MARAVIROC]
IC90 [15]: 0.0032 µM

CC(=O)N[C@@H](CCN1[C@@H]2CC[C@H]1C[C@@H](n1c(C)nc3c1CN(C(=O)C(C)C)CC3)C2)c1ccccc1
Papp A→B [1]: < 10 nm/s | Papp B→A [2]: 200 nm/s | microsomal CLint [3]: 42 µL/min/mg | logD [4]: 1.6 | inhibition at 0.3 µM (hERG (KCNH2)): 0%

COC(=O)N[C@@H](CCN1[C@@H]2CC[C@H]1C[C@@H](n1c(C)nc3c1CN(C(=O)OC)CC3)C2)c1cccc(F)c1
Papp A→B [1]: 170 nm/s | Papp B→A [2]: 170 nm/s | microsomal CLint [3]: 92 µL/min/mg | logD [4]: 2.6 | inhibition at 0.3 µM (hERG (KCNH2)): 69%

Cc1nc2ccccc2n1[C@H]1C[C@H]2CC[C@@H](C1)N2CC[C@H](NC(=O)C1CCOCC1)c1ccccc1
Activity [5]: Active | Activity [6]: Active | Activity [7]: Active

CC(=O)N[C@@H](CCN1[C@@H]2CC[C@H]1C[C@@H](n1c(C)nc3ccccc31)C2)c1ccccc1
Papp A→B [1]: 130 nm/s | Papp B→A [2]: 350 nm/s | IC50 [8]: 1.5 µM
